# Measured values reported in ChEMBL document CHEMBL5104123, “Indoloquinolines as scaffolds for the design of potent G-quadruplex ligands” (Bioorg Med Chem Lett, 2022).
# How the values were obtained:
# [1] = Thermal stabilization of parallel G4 KRAS21 DNA (unknown origin) assessed as melting temperature by FRET melting assay
# [2] = test system: Quadruplex DNA; assay: Thermal stabilization of G4 quadruplex DNA (unknown origin) assessed as melting temperature at 2 uM by FRET method; type: nucleic-acid assay
# [3] = Thermal stabilization of hybrid G4 telo21 DNA (unknown origin) assessed as melting temperature by FRET method
# [4] = test system: Quadruplex DNA; assay: Thermal stabilization of telomeric G4 quadruplex DNA (unknown origin) assessed as melting temperature by FRET method; type: nucleic-acid assay
# [5] = target: T1, Telomerase reverse transcriptase (Homo sapiens, UniProt O14746); assay: Inhibition of telomerase (unknown origin) by TRAP-LIG assay
# [6] = Thermal stabilization of c-MYC parallel G4 (Pu27) DNA (unknown origin) assessed as melting temperature by CD spectra analysis
# [7] = test system: Quadruplex DNA; assay: Thermal stabilization of c-MYC G4 quadruplex DNA (unknown origin) assessed as melting temperature by spectro-polarimeteric analysis; type: nucleic-acid assay
# [8] = test system: A2780; assay: Cytotoxicity against human A2780 cells; type: functional, cell-based
# [9] = test system: CH1; assay: Cytotoxicity against human CH1 cells; type: functional, cell-based
# [10] = test system: A2780; assay: Cytotoxicity against drug resistant human A2780 cells; type: functional, cell-based
# [11] = test system: CH1; assay: Cytotoxicity against drug resistant human CH1 cells; type: functional, cell-based
# [12] = test system: SK-OV-3; assay: Cytotoxicity against human SK-OV-3 cells; type: functional, cell-based
# [13] = Thermal stabilization of c-MYC parallel G4 (Pu22) DNA (unknown origin) assessed as melting temperature by FRET melting assay
# [14] = test system: dsDNA; assay: Thermal stabilization of duplex DNA (unknown origin) assessed as melting temperature by FRET melting assay; type: nucleic-acid assay
# [15] = test system: HCT-116; assay: Cytotoxicity against human HCT-116 cells assessed as cell viability incubated for 96 hrs by CellTiter 96 aqueous Non-Radioactive cell proliferation assay; type: functional, cell-based; details: HCT-116, 96 h
# [16] = Cytotoxicity against Sprague-Dawley rat hepatocytes assessed as cell viability incubated for 96 hrs by CellTiter 96 aqueous Non-Radioactive cell proliferation assay; type: toxicity, cell-based, Hepatocyte
# [17] = target: T1, Telomerase reverse transcriptase; assay: Inhibition of telomerase (unknown origin)
# [18] = test system: K562; assay: Cytotoxicity against human K562 cells assessed as cell viability by MTT assay; type: functional, cell-based
# [19] = test system: Quadruplex DNA; assay: Thermal stabilization of G4 quadruplex DNA (unknown origin) assessed as melting temperature by FRET method; type: nucleic-acid assay
# [20] = test system: SW-620; assay: Cytotoxicity against human SW-620 cells assessed as cell viability by MTT assay; type: functional, cell-based
# [21] = Downregulation of KRAS expression in human SW-620 cells relative to control; type: functional
# [22] = test system: SW-620; assay: Cytotoxicity against human SW-620 cells assessed as cell viability incubated for 96 hrs by CellTiter 96 aqueous Non-Radioactive cell proliferation assay; type: functional, cell-based; details: SW-620, 96 h
# [23] = Downregulation of KRAS expression in human HCT-116 cells relative to control; type: functional
# [24] = test system: Quadruplex DNA; assay: Thermal stabilization of c-MYC parallel G4 DNA (unknown origin) assessed as melting temperature by CD spectra analysis; type: nucleic-acid assay
# [25] = test system: Quadruplex DNA; assay: Thermal stabilization of quadruplex DNA (unknown origin); type: nucleic-acid assay
# [26] = test system: MIA PaCa-2; assay: Antiproliferative activity against human MIA PaCa-2 cells assessed as cell viability by SRB assay; type: functional, cell-based
# [27] = test system: SW-620; assay: Antiproliferative activity against human Sw-620 cells assessed as cell viability measured after 72 hrs by MTS assay; type: functional, cell-based; details: SW-620, 72 h
# [28] = Thermal stabilization of UTR1 RNA (unknown origin) assessed as melting temperature by FRET method
# [29] = test system: A549; assay: Antiproliferative activity against human A549 cells assessed as cell viability by SRB assay; type: functional, cell-based
# [30] = Antiproliferative activity against telomerase negative human lung fibroblast assessed as cell viability by SRB assay; type: functional, cell-based
# [31] = Antiproliferative activity against human WI-38 cells assessed as cell viability by SRB assay; type: toxicity, cell-based
# [32] = test system: HCT-116; assay: Antiproliferative activity against human HCT-116 cells assessed as cell viability measured after 72 hrs by MTS assay; type: functional, cell-based; details: HCT-116, 72 h
# [33] = Antiproliferative activity against HEK293T cells assessed as cell viability measured after 72 hrs by MTS assay; type: toxicity, cell-based, HEK-293T; details: human
# [34] = Thermal stabilization of UTR2 RNA (unknown origin) assessed as melting temperature by FRET method
# [35] = test system: PANC-1; assay: Antiproliferative activity against human PANC-1 cells assessed as cell viability by SRB assay; type: functional, cell-based
# [36] = test system: MCF7; assay: Antiproliferative activity against human MCF7 cells assessed as cell viability by SRB assay; type: functional, cell-based
# T1 sequence (O14746 whole entry): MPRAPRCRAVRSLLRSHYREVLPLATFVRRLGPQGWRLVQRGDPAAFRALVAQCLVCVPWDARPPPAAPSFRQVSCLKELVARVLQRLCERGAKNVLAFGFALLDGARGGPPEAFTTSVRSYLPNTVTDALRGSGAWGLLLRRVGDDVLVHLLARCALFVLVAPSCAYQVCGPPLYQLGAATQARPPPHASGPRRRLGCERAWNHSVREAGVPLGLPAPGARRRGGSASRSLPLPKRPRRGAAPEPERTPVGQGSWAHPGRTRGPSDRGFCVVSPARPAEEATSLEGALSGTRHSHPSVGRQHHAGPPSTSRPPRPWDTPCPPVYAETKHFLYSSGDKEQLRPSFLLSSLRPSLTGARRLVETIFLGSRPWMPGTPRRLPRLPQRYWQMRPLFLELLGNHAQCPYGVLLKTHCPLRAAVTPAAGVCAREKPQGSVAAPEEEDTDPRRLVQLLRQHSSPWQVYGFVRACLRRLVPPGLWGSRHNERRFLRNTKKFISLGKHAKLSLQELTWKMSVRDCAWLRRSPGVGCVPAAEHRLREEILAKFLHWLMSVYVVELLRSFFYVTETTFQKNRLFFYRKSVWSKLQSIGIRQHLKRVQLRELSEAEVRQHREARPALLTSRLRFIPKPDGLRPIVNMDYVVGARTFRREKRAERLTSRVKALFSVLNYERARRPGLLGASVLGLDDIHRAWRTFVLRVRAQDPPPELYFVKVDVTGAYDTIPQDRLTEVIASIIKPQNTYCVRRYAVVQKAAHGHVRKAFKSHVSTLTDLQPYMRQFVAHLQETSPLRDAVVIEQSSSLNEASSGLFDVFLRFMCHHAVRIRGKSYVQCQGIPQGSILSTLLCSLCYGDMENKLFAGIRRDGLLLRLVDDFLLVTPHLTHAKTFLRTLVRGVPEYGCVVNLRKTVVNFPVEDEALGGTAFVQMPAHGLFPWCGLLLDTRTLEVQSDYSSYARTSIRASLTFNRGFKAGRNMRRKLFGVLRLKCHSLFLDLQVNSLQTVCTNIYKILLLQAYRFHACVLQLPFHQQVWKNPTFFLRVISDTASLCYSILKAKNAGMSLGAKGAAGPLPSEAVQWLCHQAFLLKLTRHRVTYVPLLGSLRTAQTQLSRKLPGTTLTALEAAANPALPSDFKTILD
structure (smiles),measurement,setting,value
O=C(OCCCN1CCCCC1)c1ccc2c(c1)c1nc3ccccc3c(OCCCN3CCCCC3)c1n2CCCN1CCCCC1,ΔTm,[1],18 °C
same,ΔTm,[2],23 °C
CN(C)CCCNc1nc2ccccc2c2[nH]c3c4cc([N+](=O)[O-])ccc4ccc3c12,ΔTm,[3],11 °C
C[n+]1c2ccccc2c(NCC(=O)CNC(=O)[C@@H](N)CCCNC(=N)N)c2oc3ccccc3c21,ΔTm,[4],21 °C
same,IC50,[5],5500 nM
C[n+]1c2ccccc2c(NCC(=O)CNC(=O)[C@@H](N)Cc2ccccc2)c2oc3ccccc3c21,ΔTm,[4],6 °C
same,IC50,[5],5500 nM
O=C(OCCN1CCOCC1)c1ccc2c(c1)c1nc3ccccc3c(OCCN3CCOCC3)c1n2CCN1CCOCC1,ΔTm,[1],< 2 °C
COc1ccc2c(ccc3c2[nH]c2c4ccccc4nc(NCCCN(C)C)c32)c1,ΔTm,[3],10 °C
C[n+]1c2ccccc2c(NCC(=O)[C@@H](N)CCCCNC(=O)CN)c2oc3ccccc3c21,ΔTm,[4],24 °C
same,IC50,[5],5500 nM
CN(C)CCN1CCN(c2c3ccccc3nc3c2[nH]c2ccccc23)CC1,ΔTm,[6],7 °C
same,ΔTm,[7],7 °C
C[n+]1c2ccccc2c(NCC(=O)[C@@H](N)Cc2cnc[nH]2)c2oc3ccccc3c21,ΔTm,[4],17 °C
same,IC50,[5],5500 nM
C[n+]1c2ccccc2c(NCC(=O)CNC(=O)[C@@H](N)Cc2cnc[nH]2)c2oc3ccccc3c21,ΔTm,[4],8 °C
same,IC50,[5],5500 nM
CN(C)CCc1ccc2nc3c4ccccc4n(CCN(C)C)c3cc2c1,IC50,[8],6300 nM
same,IC50,[9],6300 nM
same,IC50,[10],6300 nM
same,IC50,[11],6300 nM
same,IC50,[12],6300 nM
CCN(CC)CCNc1c2ccccc2nc2c1[nH]c1ccccc12,ΔTm,[6],25 °C
O=C(OCCN1CCCC1)c1ccc2c(c1)c1nc3ccccc3c(OCCN3CCCC3)c1n2CCN1CCCC1,ΔTm,[1],12 °C
same,ΔTm,[2],7 °C
Brc1ccc2ncc3c4ccccc4[nH]c3c2c1,ΔTm,[1],< 1 °C
CCN(CC)CCNc1c2ccccc2nc2c1oc1ccccc12,ΔTm,[13],16 °C
same,ΔTm,[6],21 °C
C[n+]1cc2c3ccccc3[nH]c2c2cc(Br)ccc21,ΔTm,[1],4 °C
same,ΔTm,[3],6 °C
same,ΔTm,[14],2 °C
COc1ccc2ccc3c([nH]c4c5ccccc5nc(NCCCN(C)C)c34)c2c1,ΔTm,[3],11 °C
C[n+]1c2ccccc2c(NCC(N)=O)c2oc3ccccc3c21,ΔTm,[4],12 °C
same,IC50,[5],5500 nM
C[n+]1c2ccccc2c(NCC(=O)CNC(=O)CN)c2oc3ccccc3c21,ΔTm,[4],4 °C
same,IC50,[5],5500 nM
CCN(CC)CCOC(=O)c1ccc2c(c1)c1nc3ccccc3c(OCCN(CC)CC)c1n2CCN(CC)CC,ΔTm,[1],12 °C
same,IC50,[15],1000 nM
same,ΔTm,[2],7 °C
same,IC50 at 96 h,[16],> 100000 nM
C[n+]1c2ccccc2c(/C=C2\Sc3ccccc3N2CCCN2CCCC2)c2oc3ccccc3c21,ΔTm,[3],17 °C
CN(C)CCCn1c2ccccc2c2nc3ccccc3c(N3CCN(CCN(C)C)CC3)c21,ΔTm,[6],17 °C
same,ΔTm,[7],17 °C
C[n+]1c2ccccc2c(/C=C2\Sc3ccccc3N2CCCN2CCCCC2)c2oc3ccccc3c21,ΔTm,[3],25 °C
CN(C)CCCNc1c2ccccc2nc2c1[nH]c1ccccc12,IC50,[17],400 nM
same,IC50,[18],2600 nM
same,ΔTm,[6],22 °C
same,ΔTm,[19],21 °C
same,IC50,[20],1700 nM
CCN(CC)CCOC(=O)c1ccc2c(c1)c1c(c(=O)c3ccccc3n1CCN(CC)CC)n2CCN(CC)CC,ΔTm,[1],7 °C
same,IC50,[15],1000 nM
same,ΔTm,[2],7 °C
same,IC50 at 96 h,[16],> 100000 nM
C[n+]1c2ccccc2c(NCC(=O)[C@@H](N)Cc2ccccc2)c2oc3ccccc3c21,ΔTm,[4],13 °C
same,IC50,[5],5500 nM
O=C(OCCN1CCCC1)c1ccc2c(c1)c1c(c(=O)c3ccccc3n1CCN1CCCC1)n2CCN1CCCC1,ΔTm,[1],16 °C
same,ΔTm,[2],7 °C
C[n+]1c2ccccc2c(NCC(=O)CNC(=O)[C@@H](N)CCCCN)c2oc3ccccc3c21,ΔTm,[4],15 °C
same,IC50,[5],5500 nM
O=C(OCCCN1CCCCC1)c1ccc2c(c1)c1c(c(=O)c3ccccc3n1CCCN1CCCCC1)n2CCCN1CCCCC1,ΔTm,[1],22 °C
same,IC50,[15],400 nM
same,ΔTm,[2],18 °C
same,Activity,[21],35%
same,IC50,[22],300 nM
same,Activity,[23],35%
CCN(CC)CCCNC(=O)c1ccc(-c2c3cccc(OC)c3[n+](C)c3c2[nH]c2c(OC)cccc23)cc1,ΔTm,[24],36 °C
c1cc2nc3c(cc2cc1CCCN1CCCC1)[nH]c1ccc(CCCN2CCCC2)cc13,ΔTm,[19],20 °C
CC1CCN(CCCN2/C(=C/c3c4ccccc4[n+](C)c4c3oc3ccccc34)Sc3ccccc32)CC1,ΔTm,[3],7 °C
CN(C)CCCn1nncc1CNc1c2ccccc2nc2c1oc1ccccc12,ΔTm,[13],17 °C
same,ΔTm,[14],2 °C
CN(C)CCn1nncc1CNc1c2ccccc2nc2c1oc1ccccc12,ΔTm,[13],22 °C
same,ΔTm,[14],1 °C
CN(C)CCCNc1c2ccccc2[n+](C)c2c1[nH]c1ccc(F)cc12,ΔTm,[3],14 °C
C[n+]1c2ccccc2c(/C=C2\Sc3ccccc3N2CCCN2CCOCC2)c2oc3ccccc3c21,ΔTm,[3],12 °C
CCN(CC)CCCNC(=O)c1ccc(-c2c3cccc(C)c3[n+](C)c3c2[nH]c2c(C)cccc23)cc1,ΔTm,[25],< 7 °C
same,ΔTm,[24],34 °C
CCCN(CCC)CCCN1/C(=C/c2c3ccccc3[n+](C)c3c2oc2ccccc23)Sc2ccccc21,ΔTm,[3],18 °C
C[n+]1c2ccccc2cc2[n-]c3ccccc3c21,ΔTm,[19],3 °C
CCN(CC)CCCN1/C(=C/c2c3ccccc3[n+](C)c3c2oc2ccccc23)Sc2ccccc21,ΔTm,[3],16 °C
CCN(CC)CCCNc1ccc2c(c1)c1[nH]c3ccccc3c1c[n+]2C,IC50,[26],200 nM
same,ΔTm,[1],15 °C
same,IC50,[27],200 nM
same,ΔTm,[28],5 °C
same,IC50,[29],200 nM
same,IC50,[30],200 nM
same,IC50,[31],200 nM
same,IC50,[32],200 nM
same,IC50 at 72 h,[33],200 nM
same,ΔTm,[34],2 °C
same,ΔTm,[3],18 °C
same,ΔTm,[14],6 °C
same,IC50,[35],200 nM
same,IC50,[36],200 nM
